Literature values, collected in US11612595B2, “Compositions and methods for treating rheumatoid arthritis” (Generos Biopharma Ltd., priority 2017, dated 2023).

Experiments:
STAT3 [1] = target: T1, STAT3 (Homo sapiens, UniProt P40763); conditions: Daudi cells; cited from earlier work
STAT3 [2] = target: T1, STAT3; set-up: IFNα-stimulated STAT1 phosphorylation or LIF-stimulated STAT3 phosphorylation in K562 cells; endogenous in cells; host or cells: K562 cells; conditions: K562 cells, 10 μM 1 h pretreatment; cited from earlier work
STAT5 [3] = target: T2, STAT5 (Homo sapiens, UniProt P42229+P51692); set-up: in Bcr-Abl+ K562 and KU812 cultures; endogenous in cells; host or cells: K562 and KU812 cells; conditions: 5 to 10 μM for 3 h; Bcr-Abl+ K562 and KU812 cultures; cited from earlier work
T2 sequence (P42229 1-794): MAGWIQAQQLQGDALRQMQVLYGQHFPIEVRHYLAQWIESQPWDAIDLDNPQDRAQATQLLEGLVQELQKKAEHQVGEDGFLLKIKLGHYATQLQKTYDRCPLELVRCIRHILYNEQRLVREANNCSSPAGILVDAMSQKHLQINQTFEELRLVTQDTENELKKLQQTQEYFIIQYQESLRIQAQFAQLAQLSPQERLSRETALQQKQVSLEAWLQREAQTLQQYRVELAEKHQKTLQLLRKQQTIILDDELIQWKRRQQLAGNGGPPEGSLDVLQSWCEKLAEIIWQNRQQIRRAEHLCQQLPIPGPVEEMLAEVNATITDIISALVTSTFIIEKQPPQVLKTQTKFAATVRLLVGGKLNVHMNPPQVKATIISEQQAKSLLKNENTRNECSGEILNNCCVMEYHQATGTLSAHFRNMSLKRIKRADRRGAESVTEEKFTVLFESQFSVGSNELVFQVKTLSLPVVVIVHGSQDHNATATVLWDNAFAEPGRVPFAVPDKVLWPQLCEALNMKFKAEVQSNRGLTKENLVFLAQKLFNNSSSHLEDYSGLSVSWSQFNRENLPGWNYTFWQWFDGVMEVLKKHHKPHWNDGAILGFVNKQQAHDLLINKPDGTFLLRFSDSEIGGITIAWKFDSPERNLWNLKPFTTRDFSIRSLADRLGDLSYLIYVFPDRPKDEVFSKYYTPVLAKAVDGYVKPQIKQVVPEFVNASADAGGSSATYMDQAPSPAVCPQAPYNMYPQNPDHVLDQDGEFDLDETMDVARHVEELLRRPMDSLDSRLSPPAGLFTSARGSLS
T2 sequence (P51692 1-787): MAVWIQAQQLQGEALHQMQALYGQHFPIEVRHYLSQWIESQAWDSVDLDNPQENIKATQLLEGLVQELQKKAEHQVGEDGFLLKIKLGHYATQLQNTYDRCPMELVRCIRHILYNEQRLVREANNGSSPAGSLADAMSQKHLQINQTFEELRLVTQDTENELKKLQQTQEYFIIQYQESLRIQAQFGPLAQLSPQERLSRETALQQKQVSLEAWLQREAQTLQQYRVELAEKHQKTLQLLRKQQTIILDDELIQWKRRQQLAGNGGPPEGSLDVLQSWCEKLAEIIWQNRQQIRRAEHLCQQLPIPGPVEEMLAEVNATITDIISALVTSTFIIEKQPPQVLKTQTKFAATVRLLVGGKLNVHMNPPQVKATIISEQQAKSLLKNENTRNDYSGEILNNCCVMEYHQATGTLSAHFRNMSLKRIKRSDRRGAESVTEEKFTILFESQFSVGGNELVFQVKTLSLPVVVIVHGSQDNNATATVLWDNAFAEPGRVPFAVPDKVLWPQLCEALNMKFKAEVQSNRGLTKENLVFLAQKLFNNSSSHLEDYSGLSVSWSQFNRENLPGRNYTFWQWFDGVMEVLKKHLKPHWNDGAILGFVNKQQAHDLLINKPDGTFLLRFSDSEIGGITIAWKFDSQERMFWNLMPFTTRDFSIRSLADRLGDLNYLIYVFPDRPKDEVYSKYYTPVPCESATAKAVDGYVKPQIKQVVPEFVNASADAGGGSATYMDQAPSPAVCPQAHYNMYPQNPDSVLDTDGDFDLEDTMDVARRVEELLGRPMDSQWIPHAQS

STAT5 [4] = target: T2, STAT5; set-up: in Bcr-Abl+ K562 and KU812 cultures; endogenous in cells; host or cells: K562 and KU812 cells; conditions: cited from earlier work
STAT1 = target: T3, STAT1 (Homo sapiens, UniProt P42224); conditions: K562 cells, 10 μM 1 h pretreatment; cited from earlier work
T3 sequence (P42224 1-750): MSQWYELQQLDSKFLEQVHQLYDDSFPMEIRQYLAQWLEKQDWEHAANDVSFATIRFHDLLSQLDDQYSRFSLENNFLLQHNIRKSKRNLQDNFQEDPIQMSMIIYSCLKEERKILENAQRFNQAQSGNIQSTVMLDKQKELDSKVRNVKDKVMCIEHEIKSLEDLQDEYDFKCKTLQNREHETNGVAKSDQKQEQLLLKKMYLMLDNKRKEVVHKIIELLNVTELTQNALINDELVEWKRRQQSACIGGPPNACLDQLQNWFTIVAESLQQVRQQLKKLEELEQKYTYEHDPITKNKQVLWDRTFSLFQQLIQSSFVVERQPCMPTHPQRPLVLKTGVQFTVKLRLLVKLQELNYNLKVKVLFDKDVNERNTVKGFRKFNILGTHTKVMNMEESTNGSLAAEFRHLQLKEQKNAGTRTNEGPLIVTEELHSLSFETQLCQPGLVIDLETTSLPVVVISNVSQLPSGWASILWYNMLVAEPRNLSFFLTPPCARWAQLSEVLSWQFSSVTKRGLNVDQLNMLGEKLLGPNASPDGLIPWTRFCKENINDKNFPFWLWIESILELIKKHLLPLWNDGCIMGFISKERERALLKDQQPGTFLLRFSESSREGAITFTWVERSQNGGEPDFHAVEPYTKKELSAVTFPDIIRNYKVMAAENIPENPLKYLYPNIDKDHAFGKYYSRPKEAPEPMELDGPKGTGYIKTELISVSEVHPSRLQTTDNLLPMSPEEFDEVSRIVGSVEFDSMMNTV

T1 sequence (P40763 whole entry): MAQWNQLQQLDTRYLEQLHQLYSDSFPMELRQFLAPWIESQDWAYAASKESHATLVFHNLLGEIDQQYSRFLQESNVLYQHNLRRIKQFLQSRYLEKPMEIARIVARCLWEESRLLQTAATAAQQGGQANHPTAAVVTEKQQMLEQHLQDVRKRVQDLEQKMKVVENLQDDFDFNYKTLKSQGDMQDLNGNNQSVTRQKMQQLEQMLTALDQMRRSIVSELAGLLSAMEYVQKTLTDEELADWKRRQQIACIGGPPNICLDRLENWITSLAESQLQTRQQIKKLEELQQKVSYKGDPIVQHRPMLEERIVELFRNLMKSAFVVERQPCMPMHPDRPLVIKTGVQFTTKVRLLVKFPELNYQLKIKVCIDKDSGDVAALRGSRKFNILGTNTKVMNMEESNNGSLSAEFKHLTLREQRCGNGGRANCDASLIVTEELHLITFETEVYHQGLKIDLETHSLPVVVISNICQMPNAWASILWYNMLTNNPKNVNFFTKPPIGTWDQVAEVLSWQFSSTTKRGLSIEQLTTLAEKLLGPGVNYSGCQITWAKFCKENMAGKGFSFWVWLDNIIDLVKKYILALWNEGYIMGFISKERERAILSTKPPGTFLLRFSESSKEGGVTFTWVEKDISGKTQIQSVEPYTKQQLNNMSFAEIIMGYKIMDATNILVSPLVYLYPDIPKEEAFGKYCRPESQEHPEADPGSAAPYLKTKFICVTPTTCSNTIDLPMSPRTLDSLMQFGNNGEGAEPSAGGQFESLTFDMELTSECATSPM

## O=C(N/N=C/c1coc2ccccc2c1=O)c1cccnc1 [nicotinohydrazide, N′-((4-Oxo-4H-chromen-3-yl)methylene)nicotinohydrazide]
STAT3 [1]
  IFN-α-stimulated STAT3 tyrosine phosphorylation: not

## O=c1[nH]c2ccccc2n1C1CCN(CCCC(c2ccc(F)cc2)c2ccc(F)cc2)CC1 [pimozide, 1-[1-[4,4-bis(4-fluorophenyl)butyl]-4-piperidinyl]-1,3-dihydro-2H-benzimidazole-2-one]
STAT3 [2]
  LIF-stimulated STAT3 phosphorylation: little activity
STAT5 [3]
  constitutive STAT5 Tyr694 phosphorylation: inhibits
STAT5 [4]; 5 μM for 18 h, Bcr-Abl+ K562 and KU812 cultures
  STAT5 transcription activity: inhibits
STAT5 [4]; CML cell lines
  expression of STAT5 target genes: decreased
STAT1
  IFNα-stimulated STAT1 phosphorylation: little activity
